According to patent publication US20110263593A1, “NOVEL IMIDAZO[1,2-a]PYRIMIDINE DERIVATIVES, METHOD FOR THE PREPARATION THEREOF, USE THEREOF AS MEDICAMENTS, PHARMACEUTICAL COMPOSITIONS AND NOVEL USE, IN PARTICULAR AS MET INHIBITORS” (sanofi-aventis, priority 2008, published 2011):

Key:
[1] = test system: HCT116 cells and MKN45 cells; experiment: Test C: measurement of cell proliferation by 14C-thymidine pulse; type: cell-based; settings: 14C-thymidine incorporation, 96 h of treatment; cell line not stated (HCT116 and MKN45 in method)
Experimental: C) Test C: Measurement of cell proliferation by ^14C-thymidine pulse
The cells are seeded into Cytostar 96-well plates in 180 μl for 4 hours at 37° C. and 5% CO2: HCT116 cells at a rate of 2500 cells per well in DMEM medium+10% foetal calf serum+1% L-glutamine and MKN45 cells at a rate of 7500 cells per well in RPMI medium+10% foetal calf serum+1% L-glutamine. After these 4 hours of incubation, the products are added in 10 μl as a 20-fold concentrated solution according to the dilution method mentioned for the ELISA. The products are tested at 10 concentrations in duplicate from 10 000 nM to 0.3 nM with an increment of 3.
After treatment for 72 h, add 10 μl of ^14C-thymidine at 10 μCi/ml to obtain 0.1 μCi per well. The ^14C-thymidine incorporation is measured on a Micro-Beta machine (Perkin-Elmer) after 24 hours of pulse and 96 h of treatment.
All the stages of the assay are automated on BIOMEK 2000 or TECAN stations.

MET [2] = target: T1, MET (Homo sapiens, UniProt P08581); experiment: Test A: HTRF MET assay in 96-well format; type: biochemical; parameters: The His-Tev-MET (956-1390) recombinant DNA in pFastBac (Invitrogen) is transfected into insect cells; His (N, cleaved yes); Tev cleavage site (N, cleaved yes); made in house; host or cells: SF21 insect cells (baculovirus, pFastBac); settings: 5 nM MET, 10 μM ATP
Experimental: I) Expression and Purification of MET, Cytoplasmic Domain
The His-Tev-MET (956-1390) recombinant DNA in pFastBac (Invitrogen) is transfected into insect cells and, after several viral amplification stages, the final baculovirus stock is tested for the expression of the protein of interest.
After infection for 72 h at 27° C. with the recombinant virus, the SF21 cell cultures are harvested by centrifugation and the cell pellets are stored at −80° C.
The cell pellets are resuspended in lysis buffer (buffer A [50 mM HEPES, pH 7.5, 250 mM NaCl, 10% glycerol, 1 mM TECP]; + cocktail of protease inhibitors, Roche Diagnostics, without EDTA, ref. 1873580), stirred at 4° C. until the mixture is homogeneous and then lysed mechanically using a “Dounce” type apparatus.
After centrifugation, the lysis supernatant is incubated for 2 h at 4° C. with nickel chelate resin (His-Trap 6 Fast Flow™, GE HealthCare). After washing with 20 volumes of buffer A, the suspension is packed into a column, and the proteins are eluted with a gradient of buffer B (buffer A+290 mM imidazole).
The fractions comprising the protein of interest for the purpose of electrophoretic analysis (SDS PAGE) are combined, concentrated by ultrafiltration (10 kDa cut-off) and injected onto an exclusion chromatography column (Superdex™ 200, GE HealthCare) equilibrated in buffer A.
After enzymatic cleavage of the histidine tag, the protein is reinjected onto a new IMAC nickel chelate chromatography column (His-Trap 6 Fast Flow™, GE HealthCare) equilibrated in buffer A. The fractions eluted with a gradient of buffer B and comprising the protein of interest after electrophoresis (SDS PAGE) are finally combined and conserved at −80° C.
For the production of autophosphorylated protein, the previous fractions are incubated for 1 h at ambient temperature after the addition of 2 mM ATP, 2 mM MgCl2, and 4 mM Na3VO4. After the reaction has been stopped with 5 mM of EDTA, the reaction mixture is injected onto a HiPrep desalifying column (GE HealthCare) preequilibrated in buffer A+4 mM Na3VO4, and the fractions comprising the protein of interest (SDS PAGE analysis) are combined and stored at −80° C. The degree of phosphorylation is verified by mass spectrometry (LC-MS) and by peptide mapping.
A) Test A: HTRF MET Assay in 96-Well Format
MET at a final concentration of 5 nM is incubated in a final volume of 50 μl of enzymatic reaction in the presence of the test molecule (for a final concentration range of from 0.17 nM to 10 μM, 3% DMSO final concentration) in 10 mM MOPS buffer, pH 7.4, 1 mM DTT, 0.01% Tween 20. The reaction is initiated with the substrate solution to obtain final concentrations of 1 μg/ml poly-(GAT), 10 μM ATP and 5 mM MgCl2. After incubation for 10 min at ambient temperature, the reaction is stopped with a 30 μl mix so as to obtain a final solution of 50 mM Hepes, pH 7.5, 500 mM potassium fluoride, 0.1% BSA and 133 mM EDTA in the presence of 80 ng of streptavidin 61SAXLB Cis-Bio Int. and 18 ng of anti-phosphotyrosine Mab PT66-Europium Cryptate per well. After incubation for 2 hours at ambient temperature, the reading is taken at 2 wavelengths, 620 nm and 665 nm, on a reader for the TRACE/HTRF technique and the % inhibition is calculated from the 665/620 ratios.
Target sequence in this assay (P08581 956-1390): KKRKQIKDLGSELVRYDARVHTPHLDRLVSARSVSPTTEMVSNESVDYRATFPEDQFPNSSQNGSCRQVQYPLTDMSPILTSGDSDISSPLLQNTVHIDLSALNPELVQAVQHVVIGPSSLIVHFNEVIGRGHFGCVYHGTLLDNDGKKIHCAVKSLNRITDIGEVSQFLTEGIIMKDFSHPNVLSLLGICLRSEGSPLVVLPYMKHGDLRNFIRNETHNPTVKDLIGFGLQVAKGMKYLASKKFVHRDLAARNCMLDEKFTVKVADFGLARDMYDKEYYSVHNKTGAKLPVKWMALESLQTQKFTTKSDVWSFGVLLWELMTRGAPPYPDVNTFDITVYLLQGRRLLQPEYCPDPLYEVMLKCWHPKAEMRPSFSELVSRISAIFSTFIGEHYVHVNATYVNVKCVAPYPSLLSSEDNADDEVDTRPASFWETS

MET [3] = target: T1, MET; experiment: Test B: inhibition of the autophosphorylation of MET, ELISA technique (pppY1230, 1234, 1235) in MKN45 cells; type: cell-based; parameters: endogenous in cells; host or cells: MKN45 cells; settings: 1 h treatment, phosphoMET ELISA
Experimental: B) Test B: Inhibition of the Autophosphorylation of MET; ELISA Technique (pppY1230, 1234, 1235)
a) Cell lysates: Seed MKN45 cells into 96-well plates (Cell coat BD polylysine) at 20 000 cells/well in 200 μl in RPMI medium+10% FCS+1% L-glutamine. Leave to adhere for 24 hours in an incubator.
The cells are treated the day after seeding with the products at 6 concentrations in duplicate for 1 h. At least 3 control wells are treated with the same final amount of DMSO.
Product dilution: Stock at 10 mM in pure DMSO—range from 10 mM to 30 μM with an increment of 3 in pure DMSO—intermediate 1/50 dilutions in culture medium and then removal of 10 μl added directly to the cells (200 μl): final range from 10 000 to 30 nM.
At the end of the incubation, carefully remove the supernatant and rinse with 200 μl of PBS. Next, place 100 μl of lysis buffer directly in the wells on ice and incubate at 4° C. for 30 minutes. Lysis buffer: 10 mM Tris HCl, pH 7.4, 100 mM NaCl, 1 mM EDTA, 1 mM EGTA, 1% Triton X-100, 10% glycerol, 0.1% SDS, 0.5% deoxycholate, 20 mM NaF, 2 mM Na3VO4, 1 mM PMSF and cocktail of antiproteases.
The 100 μl of lysates are transferred into a V-bottomed polypropylene plate and the ELISA is performed immediately, or the plate is frozen at −80° C.
b) PhosphoMET ELISA BioSource Kit KH00281
Into each well of the kit plate, add 70 μl of kit dilution buffer+30 μl of cell lysate or 30 μl of lysis buffer for the blanks. Incubate for 2 h with gentle agitation at ambient temperature.
Rinse the wells 4 times with 400 μl of kit washing buffer. Incubate with 100 μl of anti-phospho MET antibody for 1 hour at ambient temperature.
Rinse the wells 4 times with 400 μl of kit washing buffer. Incubate with 100 μl of anti-rabbit HRP antibody for 30 minutes at ambient temperature (except for the wells of chromogen alone).
Rinse the wells 4 times with 400 μl of kit washing buffer. Introduce 100 μl of chromogen and incubate for 30 minutes in the dark at ambient temperature.
Stop the reaction with 100 μl of stop solution. Read without delay at […], 0.1 second on Wallac Victor plate reader.
Target sequence in this assay (P08581 25-1390): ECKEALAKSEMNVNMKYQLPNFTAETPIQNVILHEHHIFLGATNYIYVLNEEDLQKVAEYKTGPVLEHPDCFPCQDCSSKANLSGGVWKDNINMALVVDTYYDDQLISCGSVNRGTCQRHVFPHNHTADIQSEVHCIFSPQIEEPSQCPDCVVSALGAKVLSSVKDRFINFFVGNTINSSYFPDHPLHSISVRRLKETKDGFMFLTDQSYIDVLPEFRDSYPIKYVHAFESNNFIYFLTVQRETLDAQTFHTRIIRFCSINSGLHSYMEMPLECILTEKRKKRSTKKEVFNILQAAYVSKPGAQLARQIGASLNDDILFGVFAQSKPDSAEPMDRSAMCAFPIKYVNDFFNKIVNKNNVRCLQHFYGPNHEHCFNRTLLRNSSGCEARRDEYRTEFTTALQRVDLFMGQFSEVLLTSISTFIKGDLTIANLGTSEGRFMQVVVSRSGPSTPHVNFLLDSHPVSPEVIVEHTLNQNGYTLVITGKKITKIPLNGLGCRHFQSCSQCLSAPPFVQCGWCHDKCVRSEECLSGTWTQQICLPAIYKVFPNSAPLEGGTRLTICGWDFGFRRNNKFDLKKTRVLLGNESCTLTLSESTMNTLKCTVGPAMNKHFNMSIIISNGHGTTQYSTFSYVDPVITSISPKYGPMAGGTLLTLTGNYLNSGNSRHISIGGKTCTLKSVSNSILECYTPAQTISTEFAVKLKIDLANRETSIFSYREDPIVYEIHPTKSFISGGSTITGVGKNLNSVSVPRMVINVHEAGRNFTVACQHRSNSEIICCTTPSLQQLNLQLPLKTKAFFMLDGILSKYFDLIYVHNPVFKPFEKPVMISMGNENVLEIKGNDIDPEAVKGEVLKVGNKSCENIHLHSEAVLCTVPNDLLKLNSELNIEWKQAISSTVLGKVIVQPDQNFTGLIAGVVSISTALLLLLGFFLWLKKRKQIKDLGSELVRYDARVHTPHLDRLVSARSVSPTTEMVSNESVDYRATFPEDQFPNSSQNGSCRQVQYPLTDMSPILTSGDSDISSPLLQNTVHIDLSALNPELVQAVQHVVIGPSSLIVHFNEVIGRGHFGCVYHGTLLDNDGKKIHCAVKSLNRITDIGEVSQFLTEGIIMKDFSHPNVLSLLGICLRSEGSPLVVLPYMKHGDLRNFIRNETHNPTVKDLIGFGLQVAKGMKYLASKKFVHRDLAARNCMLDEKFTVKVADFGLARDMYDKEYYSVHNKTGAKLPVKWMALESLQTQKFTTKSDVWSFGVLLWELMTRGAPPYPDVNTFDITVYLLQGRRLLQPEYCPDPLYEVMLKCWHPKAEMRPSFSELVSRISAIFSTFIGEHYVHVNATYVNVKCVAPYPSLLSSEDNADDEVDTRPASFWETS

IC50 [1] [nM] | IC50 (MET [2]) [nM] | IC50 (MET [3]) [nM] | melting point [°C] | SMILES
< 1000 | < 100 | < 100 | 232 | O=C(Nc1nc2ccc(S(=O)(=O)c3cnc4ncccn34)cc2s1)C1CC1 [Example 7, N-[6-(imidazo[1,2-a]pyrimidin-3-ylsulphonyl)-1,3-benzothiazol-2-yl]cyclopropanecarboxamide]
< 1000 | < 100 | < 100 | 247 | O=C(CCN1CCCC1)Nc1nc2ccc(Sc3cnc4ncccn34)cc2s1 [Example 8, N-[6-(imidazo[1,2-a]pyrimidin-3-ylsulphanyl)-1,3-benzothiazol-2-yl]-3-(pyrrolidin-1-yl)propanamide]
< 1000 | < 100 | < 500 | > 260 | CC(C)(C)OC(=O)NCC(=O)Nc1nc2ccc(Sc3cnc4ncccn34)cc2s1 [Example 11, 2-methylpropan-2-yl(2-{[6-(imidazo[1,2-a]pyrimidin-3-ylsulphanyl)-1,3-benzothiazol-2-yl]amino}-2-oxoethyl)carbamate]
< 1000 | < 100 | < 100 | 210 | CCN1CCN(CC(=O)Nc2nc3ccc(Sc4cnc5ncccn45)cc3s2)CC1 [Example 15, 2-(4-ethylpiperazin-1-yl)-N-[6-(imidazo[1,2-a]pyrimidin-3-ylsulphanyl)-1,3-benzothiazol-2-yl]acetamide]
< 1000 | < 100 | < 100 | 224 | O=C(CN1CCN(C2CC2)CC1)Nc1nc2ccc(Sc3cnc4ncccn34)cc2s1 [Example 16, 2-(4-cyclopropylpiperazin-1-yl)-N-[6-(imidazo[1,2-a]pyrimidin-3-ylsulphanyl)-1,3-benzothiazol-2-yl]acetamide]
< 1000 | < 100 | < 500 | 180 | CCN(CC)CC(=O)Nc1nc2ccc(Sc3cnc4ncccn34)cc2s1 [Example 17, N2,N2-diethyl-N-[6-(imidazo[1,2-a]pyrimidin-3-ylsulphanyl)-1,3-benzothiazol-2-yl]glycinamide]
< 1000 | < 100 | < 100 | > 260 | O=C(Nc1nc2cc(F)c(Sc3cnc4ncccn34)cc2s1)C1CC1 [Example 18, N-[5-fluoro-6-(imidazo[1,2-a]pyrimidin-3-ylsulphanyl)-1,3-benzothiazol-2-yl]cyclopropanecarboxamide]
< 1000 | < 100 | < 100 | > 264 | Nc1nc2cc(F)c(Sc3cnc4ncccn34)cc2s1 [Example 19, 5-fluoro-6-(imidazo[1,2-a]pyrimidin-3-ylsulphanyl)-1,3-benzothiazol-2-amine]
< 1000 | < 100 | < 100 | 225 | COCCC(=O)Nc1nc2ccc(Sc3cnc4ncccn34)cc2s1 [Example 20, N-[6-(imidazo[1,2-a]pyrimidin-3-ylsulphanyl)-1,3-benzothiazol-2-yl]-3-methoxypropanamide]
< 1000 | < 100 | < 100 | > 264 | Nc1ccn2c(Sc3ccc4nc(NC(=O)C5CC5)sc4c3)cnc2n1 [Example 22, N-{6-[(7-aminoimidazo[1,2-a]pyrimidin-3-yl)sulphanyl]-1,3-benzothiazol-2-yl}cyclopropanecarboxamide]
< 1000 | < 100 | < 100 | > 260 | O=C(Nc1nc2ccc(Sc3cnc4ncc(NCc5ccccc5)cn34)cc2s1)C1CC1 [Example 26, N-(6-{[6-(benzylamino)imidazo[1,2-a]pyrimidin-3-yl]sulphanyl}-1,3-benzothiazol-2-yl)cyclopropanecarboxamide]
< 1000 | < 100 | < 500 | 270 | O=C(Nc1nc2ccc(Sc3cnc4ncccn34)cc2s1)C1CCOCC1 [Example 27, N-[6-(imidazo[1,2-a]pyrimidin-3-ylsulphanyl)-1,3-benzothiazol-2-yl]tetrahydro-2H-pyran-4-carboxamide]
